From patent US20260242419A1, “A CYCLIC PEPTIDE FOR TRAPPING INTERLEUKIN-1 BETA” (Merck Sharp & Dohme LLC, priority 2023, published 2026)
Starred links: 1 amine or outer side, 2 acyl side, 3 side chain; linkers in the order of their positions; H or OH if unused. Non-standard residues stand in square brackets, D forms with d. Residues, ends and D or L forms follow the SMILES beside them. Trp(4-Cl)(βS-Me) = C[C@@H](c1c[nH]c2cccc(Cl)c12)[C@H](N)C(=O)O; dPro(4R-(4-pyridylmethyl)) = O=C(O)[C@H]1C[C@@H](Cc2ccncc2)CN1; X17 = CN(C)C(=O)c1ccc(-c2ccc(C[C@H](N[*:1])C(=O)[*:2])cc2)cc1; Trp(βS-Me,4-F) = C[C@@H](c1c[nH]c2cccc(F)c12)[C@H](N)C(=O)O; Bip(4'-CONH2) = NC(=O)c1ccc(-c2ccc(C[C@H](N)C(=O)O)cc2)cc1; Bip(4'-COOH) = N[C@@H](Cc1ccc(-c2ccc(C(=O)O)cc2)cc1)C(=O)O; Ala(1-bicyclo(1.1.1)pentyl) = N[C@@H](CC12CC(C1)C2)C(=O)O; dPro(3S-(4-F-Bn)) = O=C(O)[C@@H]1NCC[C@@H]1Cc1ccc(F)cc1; 1Nal(3S-Me) = C[C@@H](c1cccc2ccccc12)[C@H](N)C(=O)O; X4 = O=C([C@H]1[C@@H](Cc2ccncc2)CCN1[*:1])[*:2]; Ala(morpholin-4-yl) = N[C@@H](CN1CCOCC1)C(=O)O; Ala(piperazin-1-yl) = N[C@@H](CN1CCNCC1)C(=O)O; Ala(pyrimidin-5-yl) = N[C@@H](Cc1cncnc1)C(=O)O; Phe(4-COOH) = N[C@@H](Cc1ccc(C(=O)O)cc1)C(=O)O; Bip = N[C@@H](Cc1ccc(-c2ccccc2)cc1)C(=O)O; Pro(cis-4-F) = O=C(O)[C@@H]1C[C@H](F)CN1; Ala(4-THP) = N[C@@H](CC1CCOCC1)C(=O)O; X6 = O=C([C@H](Cc1ccncn1)N[*:1])[*:2]; d(αMeD) = C[C@@](N)(CC(=O)O)C(=O)O; 4Pal = N[C@@H](Cc1ccncc1)C(=O)O; aThr = C[C@H](O)[C@H](N)C(=O)O; Dab = NCC[C@H](N)C(=O)O; Aib = CC(C)(N)C(=O)O

biological target: T1, IL-1β (Homo sapiens, UniProt P01584); assay: IL-6 assay in MRC5 cells: inhibition of IL-1β induced IL-6 secretion (AlphaLISA); format: cell-based; conditions: inhibition of IL-1β induced IL-6 secretion in MRC5 cells; compound pre-incubated 1 hour with recombinant human IL-1β; read-out: MRC5 IC50
T1 construct: purchased BioLegend 579404
T1 sequence (P01584 117-269): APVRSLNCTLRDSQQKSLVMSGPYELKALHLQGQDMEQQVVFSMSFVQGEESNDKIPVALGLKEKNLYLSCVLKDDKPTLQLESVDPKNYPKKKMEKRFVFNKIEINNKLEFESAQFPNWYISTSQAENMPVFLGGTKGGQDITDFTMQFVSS
Outline: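 Compound was pre-incubated 1 h at ambient temperature with recombinant human IL-1β at 2λ EC80 before adding human lung fibroblast MRC5 cells (3000/well) in EMEM with 0.025% BSA. After overnight culture at 37 °C, 5% CO2, secreted IL-6 in conditioned medium was measured by AlphaLISA; IC50 from 4-parameter logistic fits.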

IC50	SMILES
0.015 nM	C[C@@H](c1c[nH]c2cccc(F)c12)[C@@H]1NC(=O)[C@@H]2C[C@H](F)CN2C(=O)CNC(=O)[C@H](Cc2ccc(C(=O)O)cc2)NC(=O)[C@H](CC23CC(C2)C3)NC(=O)[C@H](Cc2ccc(-c3ccc(C(=O)O)cc3)cc2)NC(=O)[C@H]2[C@@H](Cc3ccncc3)CCN2C(=O)CNC(=O)[C@H](CCN)NC(=O)[C@H](CCC(N)=O)NC(=O)[C@H](Cc2ccncn2)NC(=O)[C@@](C)(CC(=O)O)NC(=O)[C@H](Cc2c[nH]c3ccccc23)NC(=O)[C@H](CO)NC(=O)C(C)(C)NC1=O [Example 284] (cyclo([Bip(4'-COOH)][Ala(1-bicyclo(1.1.1)pentyl)][Phe(4-COOH)]G[Pro(cis-4-F)][Trp(βS-Me,4-F)][Aib]SW[d(αMeD)][X6]Q[Dab]G[X4]))
0.013 nM	C[C@@H](c1c[nH]c2cccc(F)c12)[C@@H]1NC(=O)[C@@H]2C[C@H](F)CN2C(=O)CNC(=O)[C@H](Cc2ccc(C(=O)O)cc2)NC(=O)[C@H](CC23CC(C2)C3)NC(=O)[C@H](Cc2ccc(-c3ccc(C(=O)O)cc3)cc2)NC(=O)[C@H]2C[C@@H](Cc3ccncc3)CN2C(=O)CNC(=O)[C@H](CCN)NC(=O)[C@H](CCC(N)=O)NC(=O)[C@H](Cc2ccncn2)NC(=O)[C@@](C)(CC(=O)O)NC(=O)[C@H](Cc2c[nH]c3ccccc23)NC(=O)[C@H](CO)NC(=O)C(C)(C)NC1=O [Example 285] (cyclo([Bip(4'-COOH)][Ala(1-bicyclo(1.1.1)pentyl)][Phe(4-COOH)]G[Pro(cis-4-F)][Trp(βS-Me,4-F)][Aib]SW[d(αMeD)][X6]Q[Dab]G[dPro(4R-(4-pyridylmethyl))]))
0.01 nM	C[C@@H](c1c[nH]c2cccc(F)c12)[C@@H]1NC(=O)[C@@H]2C[C@H](F)CN2C(=O)CNC(=O)[C@H](Cc2ccc(C(=O)O)cc2)NC(=O)[C@H](Cc2ccncc2)NC(=O)[C@H](Cc2ccc(-c3ccc(C(=O)O)cc3)cc2)NC(=O)[C@H]2[C@@H](Cc3ccc(F)cc3)CCN2C(=O)CNC(=O)[C@H](CCN)NC(=O)[C@H](CCC(N)=O)NC(=O)[C@H](CN2CCOCC2)NC(=O)[C@@](C)(CC(=O)O)NC(=O)[C@H](Cc2c[nH]c3ccccc23)NC(=O)[C@H](CO)NC(=O)C(C)(C)NC1=O [Example 286] (cyclo([Bip(4'-COOH)][4Pal][Phe(4-COOH)]G[Pro(cis-4-F)][Trp(βS-Me,4-F)][Aib]SW[d(αMeD)][Ala(morpholin-4-yl)]Q[Dab]G[dPro(3S-(4-F-Bn))]))
0.011 nM	C[C@@H](c1c[nH]c2cccc(F)c12)[C@@H]1NC(=O)[C@@H]2C[C@H](F)CN2C(=O)CNC(=O)[C@H](Cc2ccc(C(=O)O)cc2)NC(=O)[C@H](Cc2ccncc2)NC(=O)[C@H](Cc2ccc(-c3ccc(C(=O)O)cc3)cc2)NC(=O)[C@H]2[C@@H](Cc3ccc(F)cc3)CCN2C(=O)CNC(=O)[C@H](CCN)NC(=O)[C@H](CCC(N)=O)NC(=O)[C@H](CN2CCNCC2)NC(=O)[C@@](C)(CC(=O)O)NC(=O)[C@H](Cc2c[nH]c3ccccc23)NC(=O)[C@H](CO)NC(=O)C(C)(C)NC1=O [Example 287] (cyclo([Bip(4'-COOH)][4Pal][Phe(4-COOH)]G[Pro(cis-4-F)][Trp(βS-Me,4-F)][Aib]SW[d(αMeD)][Ala(piperazin-1-yl)]Q[Dab]G[dPro(3S-(4-F-Bn))]))
0.019 nM	C[C@H](O)[C@@H]1NC(=O)[C@@](C)(CC(=O)O)NC(=O)[C@H](Cc2c[nH]c3ccccc23)NC(=O)[C@H](CO)NC(=O)C(C)(C)NC(=O)[C@H]([C@@H](C)c2cccc3ccccc23)NC(=O)[C@@H]2C[C@H](F)CN2C(=O)CNC(=O)[C@H](Cc2ccc(C(=O)O)cc2)NC(=O)[C@H](Cc2ccncc2)NC(=O)[C@H](Cc2ccc(-c3ccccc3)cc2)NC(=O)[C@H]2C[C@@H](Cc3ccncc3)CN2C(=O)CNC(=O)[C@H](CCN)NC(=O)[C@H](CCC(N)=O)NC1=O [Example 288] (cyclo([Bip][4Pal][Phe(4-COOH)]G[Pro(cis-4-F)][1Nal(3S-Me)][Aib]SW[d(αMeD)][aThr]Q[Dab]G[dPro(4R-(4-pyridylmethyl))]))
0.015 nM	C[C@H](O)[C@@H]1NC(=O)[C@@](C)(CC(=O)O)NC(=O)[C@H](Cc2c[nH]c3ccccc23)NC(=O)[C@H](CO)NC(=O)C(C)(C)NC(=O)[C@H]([C@@H](C)c2c[nH]c3cccc(Cl)c23)NC(=O)[C@@H]2C[C@H](F)CN2C(=O)CNC(=O)[C@H](Cc2ccc(C(=O)O)cc2)NC(=O)[C@H](Cc2ccncc2)NC(=O)[C@H](Cc2ccc(-c3ccccc3)cc2)NC(=O)[C@H]2C[C@@H](Cc3ccncc3)CN2C(=O)CNC(=O)[C@H](CCN)NC(=O)[C@H](CCC(N)=O)NC1=O [Example 289] (cyclo([Bip][4Pal][Phe(4-COOH)]G[Pro(cis-4-F)][Trp(4-Cl)(βS-Me)][Aib]SW[d(αMeD)][aThr]Q[Dab]G[dPro(4R-(4-pyridylmethyl))]))
0.018 nM	C[C@@H](c1cccc2ccccc12)[C@@H]1NC(=O)[C@@H]2C[C@H](F)CN2C(=O)CNC(=O)[C@H](Cc2ccc(C(=O)O)cc2)NC(=O)[C@H](Cc2ccncc2)NC(=O)[C@H](Cc2ccc(-c3ccccc3)cc2)NC(=O)[C@H]2C[C@@H](Cc3ccncc3)CN2C(=O)CNC(=O)[C@H](CCN)NC(=O)[C@H](CCC(N)=O)NC(=O)[C@H](CC2CCOCC2)NC(=O)[C@@](C)(CC(=O)O)NC(=O)[C@H](Cc2c[nH]c3ccccc23)NC(=O)[C@H](CO)NC(=O)C(C)(C)NC1=O [Example 290] (cyclo([Bip][4Pal][Phe(4-COOH)]G[Pro(cis-4-F)][1Nal(3S-Me)][Aib]SW[d(αMeD)][Ala(4-THP)]Q[Dab]G[dPro(4R-(4-pyridylmethyl))]))
0.018 nM	C[C@@H](c1cccc2ccccc12)[C@@H]1NC(=O)[C@@H]2C[C@H](F)CN2C(=O)CNC(=O)[C@H](Cc2ccc(C(=O)O)cc2)NC(=O)[C@H](Cc2ccncc2)NC(=O)[C@H](Cc2ccc(-c3ccccc3)cc2)NC(=O)[C@H]2C[C@@H](Cc3ccncc3)CN2C(=O)CNC(=O)[C@H](CCN)NC(=O)[C@H](CCC(N)=O)NC(=O)[C@H](Cc2cncnc2)NC(=O)[C@@](C)(CC(=O)O)NC(=O)[C@H](Cc2c[nH]c3ccccc23)NC(=O)[C@H](CO)NC(=O)C(C)(C)NC1=O [Example 291] (cyclo([Bip][4Pal][Phe(4-COOH)]G[Pro(cis-4-F)][1Nal(3S-Me)][Aib]SW[d(αMeD)][Ala(pyrimidin-5-yl)]Q[Dab]G[dPro(4R-(4-pyridylmethyl))]))
0.015 nM	C[C@@H](c1c[nH]c2cccc(Cl)c12)[C@@H]1NC(=O)[C@@H]2C[C@H](F)CN2C(=O)CNC(=O)[C@H](Cc2ccc(C(=O)O)cc2)NC(=O)[C@H](Cc2ccncc2)NC(=O)[C@H](Cc2ccc(-c3ccccc3)cc2)NC(=O)[C@H]2C[C@@H](Cc3ccncc3)CN2C(=O)CNC(=O)[C@H](CCN)NC(=O)[C@H](CCC(N)=O)NC(=O)[C@H](Cc2cncnc2)NC(=O)[C@@](C)(CC(=O)O)NC(=O)[C@H](Cc2c[nH]c3ccccc23)NC(=O)[C@H](CO)NC(=O)C(C)(C)NC1=O [Example 292] (cyclo([Bip][4Pal][Phe(4-COOH)]G[Pro(cis-4-F)][Trp(4-Cl)(βS-Me)][Aib]SW[d(αMeD)][Ala(pyrimidin-5-yl)]Q[Dab]G[dPro(4R-(4-pyridylmethyl))]))
0.01 nM	C[C@H](O)[C@@H]1NC(=O)[C@@](C)(CC(=O)O)NC(=O)[C@H](Cc2c[nH]c3ccccc23)NC(=O)[C@H](CO)NC(=O)C(C)(C)NC(=O)[C@H]([C@@H](C)c2c[nH]c3cccc(F)c23)NC(=O)[C@@H]2C[C@H](F)CN2C(=O)CNC(=O)[C@H](Cc2ccc(C(=O)O)cc2)NC(=O)[C@H](Cc2ccncc2)NC(=O)[C@H](Cc2ccc(-c3ccccc3)cc2)NC(=O)[C@H]2C[C@@H](Cc3ccncc3)CN2C(=O)CNC(=O)[C@H](CCN)NC(=O)[C@H](CCC(N)=O)NC1=O [Example 293] (cyclo([Bip][4Pal][Phe(4-COOH)]G[Pro(cis-4-F)][Trp(βS-Me,4-F)][Aib]SW[d(αMeD)][aThr]Q[Dab]G[dPro(4R-(4-pyridylmethyl))]))
0.014 nM	C[C@@H](c1c[nH]c2cccc(F)c12)[C@@H]1NC(=O)[C@@H]2C[C@H](F)CN2C(=O)CNC(=O)[C@H](Cc2ccc(C(=O)O)cc2)NC(=O)[C@H](Cc2ccncc2)NC(=O)[C@H](Cc2ccc(-c3ccccc3)cc2)NC(=O)[C@H]2C[C@@H](Cc3ccncc3)CN2C(=O)CNC(=O)[C@H](CCN)NC(=O)[C@H](CCC(N)=O)NC(=O)[C@H](CC2CCOCC2)NC(=O)[C@@](C)(CC(=O)O)NC(=O)[C@H](Cc2c[nH]c3ccccc23)NC(=O)[C@H](CO)NC(=O)C(C)(C)NC1=O [Example 294] (cyclo([Bip][4Pal][Phe(4-COOH)]G[Pro(cis-4-F)][Trp(βS-Me,4-F)][Aib]SW[d(αMeD)][Ala(4-THP)]Q[Dab]G[dPro(4R-(4-pyridylmethyl))]))
0.012 nM	C[C@@H](c1c[nH]c2cccc(F)c12)[C@@H]1NC(=O)[C@@H]2C[C@H](F)CN2C(=O)CNC(=O)[C@H](Cc2ccc(C(=O)O)cc2)NC(=O)[C@H](Cc2ccncc2)NC(=O)[C@H](Cc2ccc(-c3ccc(C(=O)N(C)C)cc3)cc2)NC(=O)[C@H]2C[C@@H](Cc3ccncc3)CN2C(=O)CNC(=O)[C@H](CCN)NC(=O)[C@H](CCC(N)=O)NC(=O)[C@H](CC2CCOCC2)NC(=O)[C@@](C)(CC(=O)O)NC(=O)[C@H](Cc2c[nH]c3ccccc23)NC(=O)[C@H](CO)NC(=O)C(C)(C)NC1=O [Example 295] (cyclo([X17][4Pal][Phe(4-COOH)]G[Pro(cis-4-F)][Trp(βS-Me,4-F)][Aib]SW[d(αMeD)][Ala(4-THP)]Q[Dab]G[dPro(4R-(4-pyridylmethyl))]))
0.013 nM	C[C@@H](c1c[nH]c2cccc(F)c12)[C@@H]1NC(=O)[C@@H]2C[C@H](F)CN2C(=O)CNC(=O)[C@H](Cc2ccc(C(=O)O)cc2)NC(=O)[C@H](Cc2ccncc2)NC(=O)[C@H](Cc2ccc(-c3ccc(C(N)=O)cc3)cc2)NC(=O)[C@H]2C[C@@H](Cc3ccncc3)CN2C(=O)CNC(=O)[C@H](CCN)NC(=O)[C@H](CCC(N)=O)NC(=O)[C@H](CC2CCOCC2)NC(=O)[C@@](C)(CC(=O)O)NC(=O)[C@H](Cc2c[nH]c3ccccc23)NC(=O)[C@H](CO)NC(=O)C(C)(C)NC1=O [Example 296] (cyclo([Bip(4'-CONH2)][4Pal][Phe(4-COOH)]G[Pro(cis-4-F)][Trp(βS-Me,4-F)][Aib]SW[d(αMeD)][Ala(4-THP)]Q[Dab]G[dPro(4R-(4-pyridylmethyl))]))
